From PubChem BioAssay AID651978 (The Scripps Research Institute Molecular Screening Center, 2013)
Active and inactive are the calls of the source. No rule for the calls is given here.

Key:
Assay in all cases: PubChem AID 651978
[1] = tested on: AADACL1; conditions: BW5147 mouse T-cell proteome, ABPP-SILAC LC-MS ratio, at 1 µM, hits give low values
[2] = tested on: ABHD12; conditions: BW5147 mouse T-cell proteome, ABPP-SILAC LC-MS ratio, at 1 µM, hits give low values
[3] = tested on: ACOT1; conditions: BW5147 mouse T-cell proteome, ABPP-SILAC LC-MS ratio, at 1 µM, hits give low values
[4] = tested on: ACOT2; conditions: BW5147 mouse T-cell proteome, ABPP-SILAC LC-MS ratio, at 1 µM, hits give low values
[5] = tested on: APEH; conditions: BW5147 mouse T-cell proteome, ABPP-SILAC LC-MS ratio, at 1 µM, hits give low values
[6] = target: Acyl-protein thioesterase 1 (Mus musculus) (UniProt P97823); conditions: BW5147 mouse T-cell proteome, ABPP-SILAC LC-MS ratio; LYPLA1; at 1 µM; hits give low values
Chain of Acyl-protein thioesterase 1 (Mus musculus) (P97823 whole entry, looked up): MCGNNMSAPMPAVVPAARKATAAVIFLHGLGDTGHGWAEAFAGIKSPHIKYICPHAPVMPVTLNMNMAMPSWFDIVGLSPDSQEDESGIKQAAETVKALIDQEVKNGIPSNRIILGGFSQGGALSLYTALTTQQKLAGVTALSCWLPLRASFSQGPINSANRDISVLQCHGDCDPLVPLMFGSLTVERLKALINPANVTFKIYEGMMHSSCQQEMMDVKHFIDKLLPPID

[7] = tested on: CTSA; conditions: BW5147 mouse T-cell proteome, ABPP-SILAC LC-MS ratio, at 1 µM, hits give low values
[8] = tested on: DPP4; conditions: BW5147 mouse T-cell proteome, ABPP-SILAC LC-MS ratio, at 1 µM, hits give low values
[9] = tested on: DPP7; conditions: BW5147 mouse T-cell proteome, ABPP-SILAC LC-MS ratio, at 1 µM, hits give low values
[10] = tested on: DPP8; conditions: BW5147 mouse T-cell proteome, ABPP-SILAC LC-MS ratio, at 1 µM, hits give low values
[11] = tested on: DPP9; conditions: BW5147 mouse T-cell proteome, ABPP-SILAC LC-MS ratio, at 1 µM, hits give low values
[12] = tested on: ESD; conditions: BW5147 mouse T-cell proteome, ABPP-SILAC LC-MS ratio, at 1 µM, hits give low values
[13] = tested on: FAAH; conditions: BW5147 mouse T-cell proteome, ABPP-SILAC LC-MS ratio, at 1 µM, hits give low values
[14] = tested on: FASN; conditions: BW5147 mouse T-cell proteome, ABPP-SILAC LC-MS ratio, at 1 µM, hits give low values
[15] = tested on: LACTB; conditions: BW5147 mouse T-cell proteome, ABPP-SILAC LC-MS ratio, at 1 µM, hits give low values
[16] = tested on: LIPA; conditions: BW5147 mouse T-cell proteome, ABPP-SILAC LC-MS ratio, at 1 µM, hits give low values
[17] = tested on: LYPLA2; conditions: BW5147 mouse T-cell proteome, ABPP-SILAC LC-MS ratio, at 1 µM, hits give low values
[18] = target: Monoacylglycerol lipase ABHD6 (Mus musculus) (UniProt Q8R2Y0); conditions: BW5147 mouse T-cell proteome, ABPP-SILAC LC-MS ratio, at 1 µM, hits give low values
Chain of Monoacylglycerol lipase ABHD6 (Mus musculus) (Q8R2Y0 whole entry, looked up): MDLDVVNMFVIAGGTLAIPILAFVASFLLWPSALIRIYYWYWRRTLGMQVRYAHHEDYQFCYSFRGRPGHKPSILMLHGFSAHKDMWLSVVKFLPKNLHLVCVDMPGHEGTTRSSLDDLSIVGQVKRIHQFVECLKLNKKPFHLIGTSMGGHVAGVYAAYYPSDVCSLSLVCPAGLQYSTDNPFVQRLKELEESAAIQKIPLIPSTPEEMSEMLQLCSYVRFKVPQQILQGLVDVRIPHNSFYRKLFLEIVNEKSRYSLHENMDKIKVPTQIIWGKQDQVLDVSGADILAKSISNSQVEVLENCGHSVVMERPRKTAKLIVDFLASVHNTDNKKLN

[19] = tested on: PAFAH1B2; conditions: BW5147 mouse T-cell proteome, ABPP-SILAC LC-MS ratio, at 1 µM, hits give low values
[20] = tested on: PAFAH1B3; conditions: BW5147 mouse T-cell proteome, ABPP-SILAC LC-MS ratio, at 1 µM, hits give low values
[21] = tested on: PNPLA6; conditions: BW5147 mouse T-cell proteome, ABPP-SILAC LC-MS ratio, at 1 µM, hits give low values
[22] = tested on: PNPLA7; conditions: BW5147 mouse T-cell proteome, ABPP-SILAC LC-MS ratio, at 1 µM, hits give low values
[23] = tested on: PRCP; conditions: BW5147 mouse T-cell proteome, ABPP-SILAC LC-MS ratio, at 1 µM, hits give low values
[24] = tested on: PREPL; conditions: BW5147 mouse T-cell proteome, ABPP-SILAC LC-MS ratio, at 1 µM, hits give low values
[25] = target: Palmitoyl-protein thioesterase ABHD10, mitochondrial (Mus musculus) (UniProt Q6PE15); conditions: BW5147 mouse T-cell proteome, ABPP-SILAC LC-MS ratio, at 1 µM, hits give low values
Chain of Palmitoyl-protein thioesterase ABHD10, mitochondrial (Mus musculus) (Q6PE15 whole entry, looked up): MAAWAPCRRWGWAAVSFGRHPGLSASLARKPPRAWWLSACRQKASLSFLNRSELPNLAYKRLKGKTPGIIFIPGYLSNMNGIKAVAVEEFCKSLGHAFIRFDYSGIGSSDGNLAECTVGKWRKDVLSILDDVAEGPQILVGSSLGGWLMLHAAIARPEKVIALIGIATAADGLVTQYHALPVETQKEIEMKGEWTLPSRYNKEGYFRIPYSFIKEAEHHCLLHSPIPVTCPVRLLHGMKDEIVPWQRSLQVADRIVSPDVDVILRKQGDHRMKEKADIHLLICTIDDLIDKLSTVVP

[26] = target: Platelet-activating factor acetylhydrolase 2, cytoplasmic (Mus musculus) (UniProt Q8VDG7); conditions: BW5147 mouse T-cell proteome, ABPP-SILAC LC-MS ratio; PAFAH2; at 1 µM; hits give low values
Chain of Platelet-activating factor acetylhydrolase 2, cytoplasmic (Mus musculus) (Q8VDG7 whole entry, looked up): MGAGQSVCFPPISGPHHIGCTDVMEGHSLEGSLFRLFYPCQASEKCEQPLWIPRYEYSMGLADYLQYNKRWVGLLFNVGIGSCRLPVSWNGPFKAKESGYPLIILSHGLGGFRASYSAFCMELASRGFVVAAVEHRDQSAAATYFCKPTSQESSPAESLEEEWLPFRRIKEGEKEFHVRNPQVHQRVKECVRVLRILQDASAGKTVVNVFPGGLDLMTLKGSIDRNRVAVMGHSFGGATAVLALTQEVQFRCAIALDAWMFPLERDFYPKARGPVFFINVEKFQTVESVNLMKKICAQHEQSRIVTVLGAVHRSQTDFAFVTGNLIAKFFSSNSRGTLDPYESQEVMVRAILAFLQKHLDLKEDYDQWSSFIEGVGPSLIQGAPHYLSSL

[27] = target: Prolyl endopeptidase (Mus musculus) (UniProt Q9QUR6); conditions: BW5147 mouse T-cell proteome, ABPP-SILAC LC-MS ratio; PREP; at 1 µM; hits give low values
Chain of Prolyl endopeptidase (Mus musculus) (Q9QUR6 whole entry, looked up): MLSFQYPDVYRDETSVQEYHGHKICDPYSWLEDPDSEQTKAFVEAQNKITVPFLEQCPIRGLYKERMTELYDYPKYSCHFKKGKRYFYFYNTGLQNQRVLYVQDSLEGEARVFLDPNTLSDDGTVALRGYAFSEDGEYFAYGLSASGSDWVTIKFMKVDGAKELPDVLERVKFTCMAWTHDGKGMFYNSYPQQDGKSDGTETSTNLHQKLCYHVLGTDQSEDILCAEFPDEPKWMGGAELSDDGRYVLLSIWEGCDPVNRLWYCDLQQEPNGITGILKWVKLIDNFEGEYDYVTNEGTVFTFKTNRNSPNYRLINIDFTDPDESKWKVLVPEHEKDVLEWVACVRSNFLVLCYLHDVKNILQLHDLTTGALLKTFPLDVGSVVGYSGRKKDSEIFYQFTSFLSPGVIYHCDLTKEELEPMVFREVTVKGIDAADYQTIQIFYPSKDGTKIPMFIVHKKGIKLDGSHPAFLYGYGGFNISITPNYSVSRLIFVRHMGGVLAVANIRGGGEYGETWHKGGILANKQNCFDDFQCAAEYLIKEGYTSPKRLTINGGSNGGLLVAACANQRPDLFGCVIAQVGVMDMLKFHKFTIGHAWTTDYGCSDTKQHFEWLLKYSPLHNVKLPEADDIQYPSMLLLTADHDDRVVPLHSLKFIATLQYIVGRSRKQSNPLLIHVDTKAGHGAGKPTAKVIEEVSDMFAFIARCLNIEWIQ

[28] = tested on: SIAE; conditions: BW5147 mouse T-cell proteome, ABPP-SILAC LC-MS ratio, at 1 µM, hits give low values
[29] = target: sn-1-specific diacylglycerol lipase ABHD11 (Mus musculus) (UniProt Q8K4F5); conditions: BW5147 mouse T-cell proteome, ABPP-SILAC LC-MS ratio, at 1 µM, hits give low values
Chain of sn-1-specific diacylglycerol lipase ABHD11 (Mus musculus) (Q8K4F5 whole entry, looked up): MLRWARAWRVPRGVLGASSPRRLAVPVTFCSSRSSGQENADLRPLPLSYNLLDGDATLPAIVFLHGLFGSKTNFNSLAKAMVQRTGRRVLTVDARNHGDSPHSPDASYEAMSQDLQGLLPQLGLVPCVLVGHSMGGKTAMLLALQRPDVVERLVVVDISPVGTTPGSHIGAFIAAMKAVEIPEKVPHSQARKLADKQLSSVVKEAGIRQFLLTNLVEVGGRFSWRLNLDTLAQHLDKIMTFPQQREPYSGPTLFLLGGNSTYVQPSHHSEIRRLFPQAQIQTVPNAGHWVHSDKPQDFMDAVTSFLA

light/heavy ratio (remaining activity) [1]: 1.05 (inactive)
light/heavy ratio (remaining activity) [2]: 1.29 (inactive)
light/heavy ratio (remaining activity) [3]: 1.22 (inactive)
light/heavy ratio (remaining activity) [4]: 1.08 (inactive)
light/heavy ratio (remaining activity) [5]: 1.06 (inactive)
light/heavy ratio (remaining activity) [6]: 0.03
light/heavy ratio (remaining activity) [7]: 1.11 (inactive)
light/heavy ratio (remaining activity) [8]: 1.24 (inactive)
light/heavy ratio (remaining activity) [9]: 0.87 (inactive)
light/heavy ratio (remaining activity) [10]: 1.08 (inactive)
light/heavy ratio (remaining activity) [11]: 1.06 (inactive)
light/heavy ratio (remaining activity) [12]: 1.05 (inactive)
light/heavy ratio (remaining activity) [13]: 1.19 (inactive)
light/heavy ratio (remaining activity) [14]: 1.1 (inactive)
light/heavy ratio (remaining activity) [15]: 1.23 (inactive)
light/heavy ratio (remaining activity) [16]: 1.12 (inactive)
light/heavy ratio (remaining activity) [17]: 0.84 (inactive)
light/heavy ratio (remaining activity) [18]: 1.18 (inactive)
light/heavy ratio (remaining activity) [19]: 1.04 (inactive)
light/heavy ratio (remaining activity) [20]: 1.04 (inactive)
light/heavy ratio (remaining activity) [21]: 1.2 (inactive)
light/heavy ratio (remaining activity) [22]: 1.29 (inactive)
light/heavy ratio (remaining activity) [23]: 0.97 (inactive)
light/heavy ratio (remaining activity) [24]: 0.95 (inactive)
light/heavy ratio (remaining activity) [25]: 0.76 (inactive)
light/heavy ratio (remaining activity) [26]: 1.3 (inactive)
light/heavy ratio (remaining activity) [27]: 1.08 (inactive)
light/heavy ratio (remaining activity) [28]: 0.98 (inactive)
light/heavy ratio (remaining activity) [29]: 0.74 (inactive)
Structure (SMILES): O=C(CN1CCN(C(=O)c2ccco2)CC1)Nc1cc(C(F)(F)F)ccc1Cl
